Where two headings read alike, the source gives them in different places.
Experiments:
[1] = target: FLNA pentapeptide of SEQ ID NO: 1 (Bn-VAKGL) (Homo sapiens, UniProt P21333); test: FITC-NLX-based FLNA screening assay (inhibition of FITC-naloxone binding to Bn-VAKGL on streptavidin plates); conditions: 10 nM FITC-NLX
mu opiate receptor (MOR) = test: MOR agonist activity using [35S]GTPγS binding assay in striatal membranes; assay type: biochemical
Procedure, shortened: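 Striatal membranes (200 μg) were preincubated 5 min at 30 °C in HEPES pH 7.5 with 100 mM NaCl, 1 mM MgCl2 and 0.5 nM [35S]GTPγS, then 5 min more with 0.1–10 μM compound. Gαo was immunoprecipitated and bound radioactivity counted by scintillation.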

[2] = FLNA-binding compound 0.01 μM, read-out: Percent Binding Inhibition
[3] = FLNA-binding compound 0.1 μM, read-out: Percent Binding Inhibition
[4] = FLNA-binding compound 1 μM, read-out: Percent Binding Inhibition
[5] = Series C-2, 0.1 μM compound, relative to DAMGO
[6] = Series C-2, 0.1 μM compound, [35S]GTPγS binding to Gαo, striatal membranes
[7] = Series C-2, 1 μM compound + 1 μM β-FNA
[8] = Series C-2, 1 μM compound + β-FNA, relative to DAMGO + BFNA
[9] = Series C-2, 1 μM compound, relative to DAMGO
[10] = Series C-2, 1 μM compound, [35S]GTPγS binding to Gαo, striatal membranes
[11] = read-out: Percent Binding Inhibition, FLNA-binding compound 0.01 μM
[12] = read-out: Percent Binding Inhibition, FLNA-binding compound 0.1 μM
[13] = read-out: Percent Binding Inhibition, FLNA-binding compound 1 μM
[14] = Series B, 0.1 μM compound, relative to DAMGO
[15] = Series B, 0.1 μM compound, [35S]GTPγS binding to Gαo, striatal membranes
[16] = Series B, 1 μM compound + 1 μM β-FNA
[17] = Series B, 1 μM compound + β-FNA, relative to DAMGO + BFNA
[18] = Series B, 1 μM compound, relative to DAMGO
[19] = Series B, 1 μM compound, [35S]GTPγS binding to Gαo, striatal membranes

CC(=O)c1ccc(S(=O)(=O)N2CCC3(CC2)OCCN3S(C)(=O)=O)cc1 [Compound C0056]
inhibition at 0.01 µM [1, 2]: 33.7% | inhibition at 0.1 µM [1, 3]: 38.9% | inhibition at 1 µM [1, 4]: 41.4% | % DAMGO (0.1 μM) (mu opiate receptor (MOR); [5]): 68.0% | MOR agonist activity, percent [35S]GTPγS binding at the stated compound concentration (mu opiate receptor (MOR); [6]): 98.6% | MOR agonist activity, percent [35S]GTPγS binding at the stated compound concentration (mu opiate receptor (MOR); [7]): 86.3% | % DAMGO + BFNA (mu opiate receptor (MOR); [8]): 196.1% | % DAMGO (1 μM) (mu opiate receptor (MOR); [9]): 83.0% | MOR agonist activity, percent [35S]GTPγS binding at the stated compound concentration (mu opiate receptor (MOR); [10]): 193.4%

O=[N+]([O-])c1ccc(S(=O)(=O)N2CCC3(CC2)NCCCO3)cc1 [Compound C0045]
inhibition at 0.01 µM [1, 2]: 39.1% | inhibition at 0.1 µM [1, 3]: 48.9% | inhibition at 1 µM [1, 4]: 53.7% | % DAMGO (0.1 μM) (mu opiate receptor (MOR); [5]): 88.3% | MOR agonist activity, percent [35S]GTPγS binding at the stated compound concentration (mu opiate receptor (MOR); [6]): 149.2% | MOR agonist activity, percent [35S]GTPγS binding at the stated compound concentration (mu opiate receptor (MOR); [7]): 105.3% | % DAMGO + BFNA (mu opiate receptor (MOR); [8]): 634.3% | % DAMGO (1 μM) (mu opiate receptor (MOR); [9]): 109.1% | MOR agonist activity, percent [35S]GTPγS binding at the stated compound concentration (mu opiate receptor (MOR); [10]): 238.8%

COc1ccc(CCC(=O)CC2c3c(cc4c(c3OC)OCO4)CC[N+]2(C)C)cc1OC (stereo not drawn) [Compound B0042]
inhibition at 0.01 µM [1, 11]: 40.8% | inhibition at 0.1 µM [1, 12]: 46.4% | inhibition at 1 µM [1, 13]: 51.6% | % DAMGO (0.1 μM) (mu opiate receptor (MOR); [14]): 39.6% | MOR agonist activity, percent [35S]GTPγS binding at the stated compound concentration (mu opiate receptor (MOR); [15]): 69.9% | MOR agonist activity, percent [35S]GTPγS binding at the stated compound concentration (mu opiate receptor (MOR); [16]): 43.1% | % DAMGO + BFNA (mu opiate receptor (MOR); [17]): 163.9% | % DAMGO (1 μM) (mu opiate receptor (MOR); [18]): 42.3% | MOR agonist activity, percent [35S]GTPγS binding at the stated compound concentration (mu opiate receptor (MOR); [19]): 107.5%

CC1CN(CC(O)COc2ccc(Cl)cc2)CC(C)O1 (stereo not drawn) [Compound A0047]
inhibition at 0.01 µM [1, 2]: 40.9% | inhibition at 0.1 µM [1, 3]: 42.9% | inhibition at 1 µM [1, 4]: 44.5% | MOR agonist activity ([35S]GTPγS binding), FLNA-Binding Compound as Agonist 0.1 μM (mu opiate receptor (MOR); 0.1 μM compound): 233.0% | % DAMGO (0.1 μM) (mu opiate receptor (MOR); 0.1 μM compound relative to DAMGO): 118.8% | MOR agonist activity ([35S]GTPγS binding), FLNA-Binding Compound as Agonist 1 μM (mu opiate receptor (MOR); 1 μM compound): 255.0% | MOR agonist activity ([35S]GTPγS binding), FLNA-Binding Compound as Agonist 1 μM + BFNA (mu opiate receptor (MOR); 1 μM compound + 1 μM β-funaltrexamine): 116.5% | % DAMGO + BFNA (mu opiate receptor (MOR); 1 μM compound + BFNA relative to DAMGO + BFNA): 157.6% | % DAMGO (1 μM) (mu opiate receptor (MOR); 1 μM compound relative to DAMGO): 92.4%

COc1cc(OC)cc(C(=O)CC2c3c(cc4c(c3OC)OCO4)CC[N+]2(C)C)c1 (stereo not drawn) [Compound B0035]
inhibition at 0.01 µM [1, 11]: 45.4% | inhibition at 0.1 µM [1, 12]: 44.7% | inhibition at 1 µM [1, 13]: 51% | % DAMGO (0.1 μM) (mu opiate receptor (MOR); [14]): 109.8% | MOR agonist activity, percent [35S]GTPγS binding at the stated compound concentration (mu opiate receptor (MOR); [15]): 188.0% | MOR agonist activity, percent [35S]GTPγS binding at the stated compound concentration (mu opiate receptor (MOR); [16]): 74.2% | % DAMGO + BFNA (mu opiate receptor (MOR); [17]): 142.4% | % DAMGO (1 μM) (mu opiate receptor (MOR); [18]): 93.2% | MOR agonist activity, percent [35S]GTPγS binding at the stated compound concentration (mu opiate receptor (MOR); [19]): 248.7%

O=C1CN(Cc2ccccc2)C2(CCNCC2)N1 [Compound C0115M]
inhibition at 0.01 µM [1, 11]: 47.8% | inhibition at 0.1 µM [1, 12]: 57.8% | inhibition at 1 µM [1, 13]: 59.9% | % DAMGO (0.1 μM) (mu opiate receptor (MOR); [5]): 105.7% | MOR agonist activity, percent [35S]GTPγS binding at the stated compound concentration (mu opiate receptor (MOR); [6]): 177.2% | MOR agonist activity, percent [35S]GTPγS binding at the stated compound concentration (mu opiate receptor (MOR); [7]): 118.4% | % DAMGO + BFNA (mu opiate receptor (MOR); [8]): 249.3% | % DAMGO (1 μM) (mu opiate receptor (MOR); [9]): 102.0% | MOR agonist activity, percent [35S]GTPγS binding at the stated compound concentration (mu opiate receptor (MOR); [10]): 226.8%

O=S(=O)(c1ccc(Cl)cc1)N1CCC2(CC1)OCCN2S(=O)(=O)c1ccc(Cl)cc1 [Compound C0067]
inhibition at 0.01 µM [1, 2]: 31.3% | inhibition at 0.1 µM [1, 3]: 39.7% | inhibition at 1 µM [1, 4]: 45% | % DAMGO (0.1 μM) (mu opiate receptor (MOR); Series C-1, 0.1 μM compound, relative to DAMGO): 82.9% | Concentration of FLNA-Binding Compound as Agonist 0.1 μM (mu opiate receptor (MOR); Series C-1, 0.1 μM compound, [35S]GTPγS binding to Gαo, striatal membranes): 142.7% | Concentration of FLNA-Binding Compound as Agonist 1 μM + BFNA (mu opiate receptor (MOR); Series C-1, 1 μM compound + 1 μM β-FNA): 33.5% | % DAMGO + BFNA (mu opiate receptor (MOR); Series C-1, 1 μM compound + β-FNA, relative to DAMGO + BFNA): 97.1% | % DAMGO (1 μM) (mu opiate receptor (MOR); Series C-1, 1 μM compound, relative to DAMGO): 81.5% | Concentration of FLNA-Binding Compound as Agonist 1 μM (mu opiate receptor (MOR); Series C-1, 1 μM compound, [35S]GTPγS binding to Gαo, striatal membranes): 179.0%

Source: patent publication US10363239B2, “Method for inhibiting growth of cancer cells” (Pain Therapeutics, Inc., priority 2013, dated 2019)
